Measured values published in ChEMBL document CHEMBL4342522 (J Med Chem, 2020).

How the values were obtained:
[1] = biological target: T1, Bromodomain-containing protein 4 (Homo sapiens, UniProt O60885); experiment: biochemical; format: cell-based
Description: Inhibition of human N-terminal His6 tagged BRD4 BD1 (57 to 168) residues expressed in Escherichia coli BL21(DE3) cells after 1 hr by TR-FRET assay

[2] = biological target: T1, Bromodomain-containing protein 4; experiment: Inhibition of human N-terminal His6 tagged BRD4 BD2 (352 to 457) residues expressed in Escherichia coli BL21(DE3) cells after 1 hr by TR-FRET assay
[3] = test system: SKM-1; experiment: Antiproliferative activity against human SKM1 cells assessed as reduction in cell viability after 5 days by CellTiter-Glo assay; format: functional, cell-based; conditions: SKM-1, 120 h
[4] = test system: NCI-H1299; experiment: Antiproliferative activity against human H1299 cells assessed as reduction in cell viability after 5 days by CellTiter-Glo assay; format: functional, cell-based; conditions: NCI-H1299, 120 h
[5] = Unbound hepatic clearance in human liver microsomes; format: ADME, Microsome
[6] = Unbound hepatic clearance in mouse liver microsomes; format: ADME, Microsome
[7] = Unbound hepatic clearance in rat liver microsomes; format: ADME, Microsome
[8] = Permeability in dog MDCK cells by PAMPA; format: ADME, cell-based, Canis lupus familiaris; conditions: read-out: permeability

Structure (SMILES)	Ki [1]	Ki [2]	IC50 [3]	IC50 [4]	CL free [5]	CL free [6]	CL free [7]	Papp [8]
Cc1cccc(C)c1Oc1ccc(C(C)(C)O)cc1-c1cn(C)c(=O)c2[nH]c(C(=O)NC(C)(C)C)cc12	220 nM	1.1 nM	14 nM	1400 nM	783 mL/min/kg	4330 mL/min/kg	3000 mL/min/kg	1.26 ×10⁻⁶ cm/s
CCNC(=O)c1cc2c(-c3cc(S(=O)(=O)CC)ccc3Oc3ccc(F)cc3F)cn(C)c(=O)c2[nH]1	6.6 nM	0.7 nM	31 nM	110 nM	50 mL/min/kg	< 103 mL/min/kg	188 mL/min/kg	3.18 ×10⁻⁶ cm/s
CCNC(=O)c1cc2c(-c3ccccc3Cc3c(C)cccc3C)cn(C)c(=O)c2[nH]1	2100 nM	25 nM	150 nM	4200 nM	5330 mL/min/kg	38300 mL/min/kg	21700 mL/min/kg	3.81 ×10⁻⁶ cm/s
CCNC(=O)c1cc2c(-c3cc(NS(=O)(=O)CC)ccc3Oc3c(C)cc(F)cc3C)cn(C)c(=O)c2[nH]1	49 nM	1.1 nM	42 nM	970 nM	317 mL/min/kg	2000 mL/min/kg		0.23 ×10⁻⁶ cm/s
CCNC(=O)c1cc2c(-c3cc(S(=O)(=O)CC)ccc3-n3ccc4ccccc43)cn(C)c(=O)c2[nH]1	140 nM	1.8 nM	50 nM	1300 nM	450 mL/min/kg	2170 mL/min/kg	633 mL/min/kg	15.9 ×10⁻⁶ cm/s
CCNC(=O)c1cc2c(-c3cc(S(C)(=O)=O)ccc3Oc3ccc(F)cc3F)cn(C)c(=O)c2[nH]1		1.3 nM	6.6 nM	370 nM	60 mL/min/kg	< 91.7 mL/min/kg	< 51.7 mL/min/kg	10.8 ×10⁻⁶ cm/s
CCNC(=O)c1cc2c(-c3cc(S(=O)(=O)CC)ccc3Oc3ccccc3C(C)(C)C)cn(C)c(=O)c2[nH]1	22 nM	2.1 nM	21 nM	460 nM	1620 mL/min/kg		1430 mL/min/kg	5.6 ×10⁻⁶ cm/s
CCNC(=O)c1cc2c(-c3cc(S(=O)(=O)CC)ccc3-n3ccc4cccc(C)c43)cn(C)c(=O)c2[nH]1	380 nM	1.1 nM	23 nM	1900 nM	700 mL/min/kg	1830 mL/min/kg	1550 mL/min/kg	14.7 ×10⁻⁶ cm/s
CCNC(=O)c1cc2c(-c3cc(C4(O)COC4)ccc3Oc3c(C)cc(F)cc3C)cn(C)c(=O)c2[nH]1		1.1 nM	24 nM	2700 nM	350 mL/min/kg	533 mL/min/kg	267 mL/min/kg	1.66 ×10⁻⁶ cm/s
CCNC(=O)c1cc2c(-c3cc(S(C)(=O)=O)ccc3Nc3c(C)cccc3C)cn(C)c(=O)c2[nH]1	250 nM	4.3 nM	68 nM	3600 nM	117 mL/min/kg	483 mL/min/kg	433 mL/min/kg	3.59 ×10⁻⁶ cm/s
Cc1cc(F)cc(C)c1Oc1ccc(C(C)(C)O)cc1-c1cn(C)c(=O)c2[nH]c(C(=O)NC34CC(C3)C4)cc12	440 nM	1.3 nM	10 nM	1100 nM	2000 mL/min/kg	11800 mL/min/kg		0.97 ×10⁻⁶ cm/s
Cc1cc(F)cc(C)c1Oc1ccc(C(C)(C)O)cc1-c1cn(C)c(=O)c2[nH]c(C(=O)NC3(C)CC3(F)F)cc12 (centres undefined)	780 nM	2 nM	66 nM	2900 nM	1120 mL/min/kg	3500 mL/min/kg	1400 mL/min/kg	0.76 ×10⁻⁶ cm/s
CCNC(=O)c1cc2c(-c3cc(C(C)(C)O)ccc3Oc3c(C)cccc3C)cn(C)c(=O)c2[nH]1	160 nM	0.6 nM	11 nM	1200 nM	617 mL/min/kg	2830 mL/min/kg	1080 mL/min/kg	6.3 ×10⁻⁶ cm/s
CCNC(=O)c1cc2c(-c3cc(S(=O)(=O)CC)ccc3Oc3c(C)cccc3C(C)(C)C)cn(C)c(=O)c2[nH]1	400 nM	15 nM	290 nM	3200 nM				
CCNC(=O)c1cc2c(-c3cc(S(N)(=O)=O)ccc3Oc3c(C)cccc3C)cn(C)c(=O)c2[nH]1	66 nM	1.1 nM	7 nM	3000 nM				
COc1ccc2c(c1)[C@]13CCCC[C@@H]1[C@H](C2)N(C)CC3 [DEXTROMETHORPHAN]							123 mL/min/kg	
CCNC(=O)c1cc2c(-c3cc(S(=O)(=O)CC)ccc3-c3c(C)cccc3C)cn(C)c(=O)c2[nH]1	> 12000 nM	22 nM	1300 nM	> 10000 nM	550 mL/min/kg		617 mL/min/kg	9 ×10⁻⁶ cm/s
Cc1cc(F)cc(C)c1Oc1ccc(C(C)(C)O)cc1-c1cn(C)c(=O)c2[nH]c(C(=O)NC(C)(C)C(F)(F)F)cc12			80 nM	2600 nM	9500 mL/min/kg	46700 mL/min/kg	18300 mL/min/kg	0.57 ×10⁻⁶ cm/s
Cc1cc(F)cc(C)c1Oc1ccc(C(C)(C)O)cc1-c1cn(C)c(=O)c2[nH]c(C(=O)NC(C)(C)C)cc12	310 nM	1.3 nM	25 nM	1500 nM	2170 mL/min/kg	8670 mL/min/kg	1450 mL/min/kg	
CCNC(=O)c1cc2c(-c3cc(S(=O)(=O)CC)ccc3Oc3c(C)cccc3Cl)cn(C)c(=O)c2[nH]1	30 nM	0.9 nM	6.2 nM	670 nM	255 mL/min/kg		2120 mL/min/kg	2.73 ×10⁻⁶ cm/s
CCNC(=O)c1cc2c(-c3cc(NC(=O)OC)ccc3Oc3c(C)cc(F)cc3C)cn(C)c(=O)c2[nH]1	290 nM	2.9 nM	50 nM	2400 nM	550 mL/min/kg	6330 mL/min/kg		0.92 ×10⁻⁶ cm/s
CCNC(=O)c1cc2c(-c3cc(S(=O)(=O)CC)ccc3Oc3c(C)cccc3F)cn(C)c(=O)c2[nH]1	13 nM	0.9 nM	2.5 nM	260 nM	150 mL/min/kg		2530 mL/min/kg	15.4 ×10⁻⁶ cm/s
CCNC(=O)c1cc2c(-c3cc(S(=O)(=O)CC)ccc3Oc3ccccc3C)cn(C)c(=O)c2[nH]1	8.4 nM	0.8 nM	3.3 nM	95 nM	142 mL/min/kg	1100 mL/min/kg		3.68 ×10⁻⁶ cm/s
CCNC(=O)c1ccc(Oc2c(C)cccc2C)c(-c2cn(C)c(=O)c3[nH]c(C(=O)NCC)cc23)c1	130 nM	1.8 nM	19 nM	1500 nM	217 mL/min/kg	317 mL/min/kg		2.63 ×10⁻⁶ cm/s
CCNC(=O)c1cc2c(-c3cc(CO)ccc3Oc3c(C)cccc3C)cn(C)c(=O)c2[nH]1	270 nM	1.7 nM	65 nM	3000 nM	417 mL/min/kg	2330 mL/min/kg		1.69 ×10⁻⁶ cm/s
CCNC(=O)c1cc2c(-c3cc(C(=O)O)ccc3Oc3c(C)cccc3C)cn(C)c(=O)c2[nH]1	300 nM	2.8 nM	3100 nM	> 10000 nM				0.74 ×10⁻⁶ cm/s
CCNC(=O)c1cc2c(-c3cc(S(=O)(=O)CC)ccc3N3CCc4cccc(C)c43)cn(C)c(=O)c2[nH]1	9 nM	0.5 nM	4.2 nM	340 nM				
